Measurements published in ChEMBL document CHEMBL1933004, “Novel (S)-1,2,3,4-tetrahydroisoquinoline-3-carboxylic acids: peroxisome proliferator-activated receptor γ selective agonists with protein-tyrosine phosphatase 1B inhibition” (Bioorg Med Chem, 2012).

Assays:
[1] = molecular target: T1, Peroxisome proliferator-activated receptor gamma (Homo sapiens, UniProt P37231); test: Transactivation of human full length PPARgamma expressed in COS1 cells co-transfected with RXRalpha after 24 hrs by luciferase reporter gene assay; format: cell-based, COS-1
T1 sequence (P37231 whole entry): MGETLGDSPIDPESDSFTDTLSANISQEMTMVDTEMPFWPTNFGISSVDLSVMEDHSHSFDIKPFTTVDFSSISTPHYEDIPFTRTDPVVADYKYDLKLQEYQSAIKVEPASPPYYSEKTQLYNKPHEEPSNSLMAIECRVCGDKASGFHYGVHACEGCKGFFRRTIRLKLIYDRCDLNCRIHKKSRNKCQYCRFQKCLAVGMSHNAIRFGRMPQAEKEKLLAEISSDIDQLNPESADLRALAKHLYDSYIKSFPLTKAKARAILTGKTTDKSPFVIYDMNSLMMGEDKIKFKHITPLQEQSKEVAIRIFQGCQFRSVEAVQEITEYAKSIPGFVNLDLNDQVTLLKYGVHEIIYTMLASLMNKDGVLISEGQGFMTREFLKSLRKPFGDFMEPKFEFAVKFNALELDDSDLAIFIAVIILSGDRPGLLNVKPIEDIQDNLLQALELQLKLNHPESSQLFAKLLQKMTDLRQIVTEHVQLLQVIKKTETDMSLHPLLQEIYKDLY

Mus musculus = test: Hypoglycemic activity in diabetic KK-Ay mouse model assessed as decrease in glucose level at 10 mg/kg, po qd for 4 days relative to untreated control; format: functional; set-up: scale not given: the % may be the effect or the level left
[2] = molecular target: T2, Peroxisome proliferator-activated receptor gamma (Homo sapiens) (UniProt P37231); test: Transactivation of human full length PPARgamma expressed in COS1 cells co-transfected with RXRalpha after 24 hrs by luciferase reporter gene assay relative to farglitazar; format: cell-based; details: COS-1
T2 sequence (whole entry): T1 sequence (P37231 whole entry)

[3] = molecular target: T3, Peroxisome proliferator-activated receptor alpha (Homo sapiens, UniProt Q07869); test: Transactivation of human full length PPARalpha expressed in COS1 cells co-transfected with RXRalpha after 24 hrs by luciferase reporter gene assay; format: cell-based, COS-1
T3 sequence (Q07869 whole entry): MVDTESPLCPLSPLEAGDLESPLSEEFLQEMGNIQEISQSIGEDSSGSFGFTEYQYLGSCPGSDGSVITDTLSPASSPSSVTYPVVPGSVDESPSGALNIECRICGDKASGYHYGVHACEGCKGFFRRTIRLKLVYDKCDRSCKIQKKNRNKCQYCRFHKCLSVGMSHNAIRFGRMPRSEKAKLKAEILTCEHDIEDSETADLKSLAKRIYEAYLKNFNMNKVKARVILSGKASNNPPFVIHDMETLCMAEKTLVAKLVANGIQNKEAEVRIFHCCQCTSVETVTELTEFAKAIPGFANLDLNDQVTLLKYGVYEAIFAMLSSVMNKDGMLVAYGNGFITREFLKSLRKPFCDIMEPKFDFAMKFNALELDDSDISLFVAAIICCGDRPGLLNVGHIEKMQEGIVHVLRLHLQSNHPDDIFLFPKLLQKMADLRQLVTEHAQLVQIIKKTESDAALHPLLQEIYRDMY

[4] = molecular target: T4, Peroxisome proliferator-activated receptor alpha (Homo sapiens) (UniProt Q07869); test: Transactivation of human full length PPARalpha expressed in COS1 cells co-transfected with RXRalpha after 24 hrs by luciferase reporter gene assay relative to WY14643; format: cell-based; details: COS-1
T4 sequence (whole entry): T3 sequence (Q07869 whole entry)

[5] = molecular target: T5, Tyrosine-protein phosphatase non-receptor type 1 (Homo sapiens, UniProt P18031); test: Inhibition of PTB1B using pNPP as substrate after 30 mins
T5 sequence (P18031 whole entry): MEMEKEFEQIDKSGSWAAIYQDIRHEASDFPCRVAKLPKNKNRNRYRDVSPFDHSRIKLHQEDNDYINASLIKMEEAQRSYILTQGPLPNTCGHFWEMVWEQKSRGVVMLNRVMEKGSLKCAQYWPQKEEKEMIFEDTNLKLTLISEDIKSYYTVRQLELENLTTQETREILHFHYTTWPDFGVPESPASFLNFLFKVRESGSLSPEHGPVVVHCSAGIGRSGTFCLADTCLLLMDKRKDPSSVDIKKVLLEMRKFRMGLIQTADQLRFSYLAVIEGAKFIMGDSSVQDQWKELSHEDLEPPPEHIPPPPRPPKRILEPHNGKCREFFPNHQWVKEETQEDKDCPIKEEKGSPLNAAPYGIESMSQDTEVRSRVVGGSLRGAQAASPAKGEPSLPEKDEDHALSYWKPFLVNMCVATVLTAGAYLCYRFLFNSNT

[6] = molecular target: T2, Peroxisome proliferator-activated receptor gamma (Homo sapiens); test: Ratio of rosiglitazone EC50 to compound EC50 for human full length PPARgamma

| SMILES | EC50 [1] [nM] | Emax [2] [%] | EC50 [3] [nM] | Emax [4] [%] | IC50 [5] [nM] | Ratio EC50 [6] | Activity (Mus musculus) [%] |
| --- | --- | --- | --- | --- | --- | --- | --- |
| CC(C)(C)N.CC(C)=C/C=C/C(=O)N1Cc2cc(OCCc3nc(/C=C/CCC(C)C)oc3C)ccc2C[C@H]1C(=O)O | 30 | 85 | 100 | 64 | 950 |  | 44 |
| C/C=C/C=C/C(=O)N1Cc2cc(OCCc3nc(/C=C/CC(C)(C)C)oc3C)ccc2C[C@H]1C(=O)O.CC(C)(C)N | 160 | 92 |  | < 50 | 1950 |  | 39 |
| C=CCCC(=O)N1Cc2cc(OCCc3nc(/C=C/CCC(C)C)oc3C)ccc2C[C@H]1C(=O)O.CC(C)(C)N | 40 | 105 |  | < 50 | 1690 |  | 45 |
| C/C=C/C=C/C(=O)N1Cc2cc(OCCc3nc(/C=C/C(C)(C)C)oc3C)ccc2C[C@H]1C(=O)O.CC(C)(C)N | 540 | 97 |  | < 50 | 2250 |  | 23 |
| CC(C)(C)N.Cc1oc(/C=C/CCC(C)C)nc1CCOc1ccc2c(c1)CN(C(=O)/C=C/c1ccco1)[C@H](C(=O)O)C2 | 70 | 102 |  | < 50 | 570 |  | 29 |
| C/C=C/C=C/C(=O)N1Cc2cc(OCCc3nc(/C=C/CC(C)C)oc3C)ccc2C[C@H]1C(=O)O.CC(C)(C)N | 160 | 103 | 240 | 81 | 2000 |  | 58 |
| CC(C)(C)N.Cc1oc(/C=C/CCC(C)C)nc1CCOc1ccc2c(c1)CN(C(=O)/C=C/C=C/CO)[C@H](C(=O)O)C2 |  | 61 |  | < 50 | 3200 |  | 14 |
| C/C=C/C=C/C(=O)N1Cc2cc(OCCc3nc(/C(C)=C/CC)oc3C)ccc2C[C@H]1C(=O)O.CC(C)(C)N | 120 | 96 |  | < 50 | 4400 |  | 40 |
| C/C=C/C=C/C(=O)N1Cc2cc(OCCc3nc(/C=C/C(CC)CC)oc3C)ccc2C[C@H]1C(=O)O.CC(C)(C)N | 760 | 90 |  | 66 | 1300 |  | 18 |
| C/C=C/C=C/C(=O)N1Cc2cc(OCCc3nc(CCCCC(C)C)oc3C)ccc2C[C@H]1C(=O)O.CC(C)(C)N | 110 | 89 |  | < 50 | 1150 |  | 17 |

More lines, in order of falling IC50 [5], values ahead:

| EC50 [1] [nM] | Emax [2] [%] | EC50 [3] [nM] | Emax [4] [%] | IC50 [5] [nM] | Ratio EC50 [6] | SMILES | Activity (Mus musculus) [%] |
| --- | --- | --- | --- | --- | --- | --- | --- |
| 240 | 104 |  | < 50 | 6200 |  | CC(C)(C)N.CCC(O)/C=C/C(=O)N1Cc2cc(OCCc3nc(/C=C/CCC(C)C)oc3C)ccc2C[C@H]1C(=O)O (stereo partly drawn) | 19 |
| 350 | 91 |  | < 50 | 5600 |  | C/C=C/C=C/C(=O)N1Cc2cc(OCCc3nc(/C(=C/C)CC)oc3C)ccc2C[C@H]1C(=O)O.CC(C)(C)N | 47 |
| 90 | 108 |  | < 50 | 3800 |  | CC(C)(C)N.CCOC/C=C/C(=O)N1Cc2cc(OCCc3nc(/C=C/CCC(C)C)oc3C)ccc2C[C@H]1C(=O)O | 3 |
| 70 | 86 |  | < 50 | 3350 |  | CC(C)(C)N.CCOCCC(=O)N1Cc2cc(OCCc3nc(/C=C/CCC(C)C)oc3C)ccc2C[C@H]1C(=O)O | -13 |
| 20 | 101 |  | < 50 | 2550 |  | CC(C)(C)N.CCO/C=C/C(=O)N1Cc2cc(OCCc3nc(/C=C/CCC(C)C)oc3C)ccc2C[C@H]1C(=O)O | 33 |
| 670 | 104 | 300 | 62 | 2200 |  | C/C=C/C=C/C(=O)N1Cc2cc(OCCc3nc(/C=C/C(C)C)oc3C)ccc2C[C@H]1C(=O)O.CC(C)(C)N | 38 |
| 50 | 98 |  | < 50 | 2030 |  | C/C=C/C=C(\C)C(=O)N1Cc2cc(OCCc3nc(/C=C/CCC(C)C)oc3C)ccc2C[C@H]1C(=O)O.CC(C)(C)N | 21 |
| 50 | 106 |  | < 50 | 1430 |  | C=CCCCC(=O)N1Cc2cc(OCCc3nc(/C=C/CCC(C)C)oc3C)ccc2C[C@H]1C(=O)O.CC(C)(C)N | 22 |
| 310 | 82 |  | < 50 | 1410 |  | C/C=C/C=C/C(=O)N1Cc2cc(OCCc3nc(/C=C/C(C)CCC)oc3C)ccc2C[C@H]1C(=O)O.CC(C)(C)N (stereo partly drawn) | 71 |
| 760 | 77 |  | < 50 | 1200 |  | C/C=C/C=C/C(=O)N1Cc2cc(OCCc3nc(/C=C/C(C)(C)CC)oc3C)ccc2C[C@H]1C(=O)O.CC(C)(C)N | 16 |
| 30 | 96 |  | < 50 | 1180 |  | CC(C)(C)N.CCC/C=C/C(=O)N1Cc2cc(OCCc3nc(/C=C/CCC(C)C)oc3C)ccc2C[C@H]1C(=O)O | 50 |
| 40 | 99 |  | < 50 | 1050 |  | CC(C)(C)N.Cc1oc(/C=C/CCC(C)C)nc1CCOc1ccc2c(c1)CN(C(=O)/C=C/c1cccs1)[C@H](C(=O)O)C2 | 45 |
| 70 | 84 |  | < 50 | 1050 |  | CC(C)(C)N.Cc1oc(/C=C/CCC(C)C)nc1CCOc1ccc2c(c1)CN(C(=O)/C=C/C1CC1)[C@H](C(=O)O)C2 | 27 |
| 20 | 119 |  | < 50 | 1020 | 4 | C/C=C/C=C/C(=O)N1Cc2cc(OCCc3nc(/C(C)=C/CCC(C)C)oc3C)ccc2C[C@H]1C(=O)O.CC(C)(C)N | 56 |
| 20 | 94 |  | < 50 | 940 |  | CC(C)(C)N.CCCCCC(=O)N1Cc2cc(OCCc3nc(/C=C/CCC(C)C)oc3C)ccc2C[C@H]1C(=O)O | 30 |
